Experiments:
Assay type in all cases: cell-based
Mycosphaerella arachidis = Mycosphaerella arachidis (Cercospora arachidicola) / liquid culture (early leaf spot); details: 96 h, photometrically 4-5 days after application, read-out: control of Mycosphaerella arachidis
Protocol: (§1) Example B11: Mycosphaerella arachidis (Cercospora arachidicola)/Liquid Culture (Early Leaf Spot) Conidia of the fungus from cryogenic storage are directly mixed into a nutrient broth (potato dextrose broth). After placing a DMSO solution of test compound into a microtiter plate (96-well format), the nutrient broth containing the fungal spores is added. The test plates are incubated at 24° C. and the inhibition of growth is determined photometrically 4-5 days after application.

[1] = system: Mycosphaerella graminicola; assay: Mycosphaerella graminicola (Septoria tritici) / liquid culture (Septoria blotch); details: Zymoseptoria tritici, 96 h, photometrically 4-5 days after application, read-out: control of Mycosphaerella graminicola
Protocol: as §1, with “B19:” for “B11:”, “graminicola (Septoria tritici)/Liquid” for “arachidis (Cercospora arachidicola)/Liquid”, “(Septoria Blotch)” for “(Early Leaf Spot)”

Monographella nivalis = Monographella nivalis (Microdochium nivale) / liquid culture (foot rot cereals); details: 96 h, photometrically 4-5 days after application, read-out: control of Monographella nivalis
Protocol: as §1, with “B10: Monographella nivalis (Microdochium nivale)/Liquid” for “B11: Mycosphaerella arachidis (Cercospora arachidicola)/Liquid”, “(Foot Rot Cereals)” for “(Early Leaf Spot)”

Work on `Cc1nn(C)c(C)c1C1CN(C(=O)c2cc(-c3ccc(F)cc3F)on2)Cc2cccc(F)c21` (stereo not shown) [Compound P-123, [5-(2,4-difluorophenyl)isoxazol-3-yl]-[5-fluoro-4-(1,3,5-trimethylpyrazol-4-yl)-3,4-dihydro-1H-isoquinolin-2-yl]methanone] yielded an inhibition of growth at 20 ppm (Mycosphaerella arachidis) of no less than 80% and an inhibition of growth at 20 ppm [1] of no less than 80%.

Work on `CC1c2ccc(O)cc2C(C)(c2cnn(C)c2)CN1C(=O)c1cc(-c2ccc(F)cc2F)on1` (stereo not shown) [Compound P-35, [5-(2,4-difluorophenyl)isoxazol-3-yl]-[6-hydroxy-1,4-dimethyl-4-(1-methylpyrazol-4-yl)-1,3-dihydroisoquinolin-2-yl]methanone] yielded an inhibition of growth at 20 ppm (Mycosphaerella arachidis) of no less than 80% and an inhibition of growth at 20 ppm [1] of no less than 80%.

`COc1ccc(-c2cc(C(=O)N3Cc4ccccc4C(c4cnn(C)c4)C3)no2)c(F)c1` (stereo not shown) [Compound P-74, [5-(2-fluoro-4-methoxy-phenyl)isoxazol-3-yl]-[4-(1-methylpyrazol-4-yl)-3,4-dihydro-1H-isoquinolin-2-yl]methanone] was tested, and the inhibition of growth at 20 ppm (Monographella nivalis) was no less than 80%.

In the case of `Cn1cc(C2CN(C(=O)c3cc(-c4ccc(F)cc4)no3)Cc3ccccc32)cn1` (stereo not shown) [Compound P-160, [3-(4-fluorophenyl)isoxazol-5-yl]-[4-(1-methylpyrazol-4-yl)-3,4-dihydro-1H-isoquinolin-2-yl]methanone], the inhibition of growth at 20 ppm (Monographella nivalis) is reported as no less than 80% and the inhibition of growth at 20 ppm [1] is reported as no less than 80%.

Work on `CC(=O)C1c2ccccc2C(c2cnn(C)c2)CN1C(=O)c1cc(-c2ccc(F)cc2F)on1` (stereo not shown) [Compound P-17, 1-[2-[5-(2,4-difluorophenyl)isoxazole-3-carbonyl]-4-(1-methylpyrazol-4-yl)-3,4-dihydro-1H-isoquinolin-1-yl]ethanone] yielded an inhibition of growth at 20 ppm (Monographella nivalis) of no less than 80% and an inhibition of growth at 20 ppm [1] of no less than 80%.

In the case of `CCC1(c2cnn(C)c2)CN(C(=O)c2cc(-c3ccc(F)cc3F)on2)Cc2ccccc21` (stereo not shown) [Compound P-248, [5-(2,4-difluorophenyl)isoxazol-3-yl]-[4-ethyl-4-(1-methylpyrazol-4-yl)-1,3-dihydroisoquinolin-2-yl]methanone], the inhibition of growth at 20 ppm (Monographella nivalis) is reported as no less than 80%.

Molecule `Cn1cc(C2CN(C(=O)c3cc(C4CCCCC4)on3)Cc3ccccc32)cn1` (stereo not shown) [Compound P-177, (5-cyclohexylisoxazol-3-yl)-[4-(1-methylpyrazol-4-yl)-3,4-dihydro-1H-isoquinolin-2-yl]methanone] has an inhibition of growth at 20 ppm (Monographella nivalis) of no less than 80% and an inhibition of growth at 20 ppm [1] of no less than 80%.

`COc1ccc2c(c1)C(c1cnn(C)c1)CN(C(=O)c1cc(-c3ccc(F)cc3F)on1)C2` (stereo not shown) [Compound P-66, [5-(2,4-difluorophenyl)isoxazol-3-yl]-[6-methoxy-4-(1-methylpyrazol-4-yl)-3,4-dihydro-1H-isoquinolin-2-yl]methanone] was tested, and the inhibition of growth at 20 ppm [1] was no less than 80%.

For `CC(C)C1(c2cnn(C)c2)CN(C(=O)c2cc(-c3ccc(F)cc3F)on2)Cc2ccccc21` (stereo not shown) [Compound P-246, [5-(2,4-difluorophenyl)isoxazol-3-yl]-[4-isopropyl-4-(1-methylpyrazol-4-yl)-1,3-dihydroisoquinolin-2-yl]methanone], the inhibition of growth at 20 ppm (Monographella nivalis) was no less than 80%.

`Cn1cc(C2CN(C(=O)c3cc(-c4ccccc4)on3)Cc3cc(C(F)(F)F)ccc32)cn1` (stereo not shown) [Compound P-103, [4-(1-methylpyrazol-4-yl)-7-(trifluoromethyl)-3,4-dihydro-1H-isoquinolin-2-yl]-(5-phenylisoxazol-3-yl)methanone] gave an inhibition of growth at 20 ppm [1] of no less than 80%.

`Cn1cc(C2CN(C(=O)c3cc(-c4ccc(F)cc4F)on3)C(c3ccccc3)c3ccccc32)cn1` (stereo not shown) [Compound P-43, [5-(2,4-difluorophenyl)isoxazol-3-yl]-[4-(1-methylpyrazol-4-yl)-1-phenyl-3,4-dihydro-1H-isoquinolin-2-yl]methanone] was tested, and the inhibition of growth at 20 ppm [1] was no less than 80%.

Work on `CCC1c2ccccc2C(c2cnn(C)c2)CN1C(=O)c1cc(-c2ccc(F)cc2F)on1` (stereo not shown) [Compound P-36, [5-(2,4-difluorophenyl)isoxazol-3-yl]-[1-ethyl-4-(1-methylpyrazol-4-yl)-3,4-dihydro-1H-isoquinolin-2-yl]methanone] yielded an inhibition of growth at 20 ppm (Monographella nivalis) of no less than 80% and an inhibition of growth at 20 ppm [1] of no less than 80%.

For `CC(C)C1(c2cnn(C)c2)CN(C(=O)c2cc(-c3ccc(F)cc3F)on2)Cc2ccccc21` (stereo not shown) [Compound P-219, [5-(2,4-difluorophenyl)isoxazol-3-yl]-[4-isopropyl-4-(1-methylpyrazol-4-yl)-1,3-dihydroisoquinolin-2-yl]methanone], the inhibition of growth at 20 ppm [1] was no less than 80%.

`CC1c2ccc(OC(F)F)cc2C(C)(c2cnn(C)c2)CN1C(=O)c1cc(-c2ccccc2)on1` (stereo not shown) [Compound P-28, [6-(difluoromethoxy)-1,4-dimethyl-4-(1-methylpyrazol-4-yl)-1,3-dihydroisoquinolin-2-yl]-(5-phenylisoxazol-3-yl)methanone] was tested, and the inhibition of growth at 20 ppm [1] was no less than 80%.

Work on `COc1cccc(-c2cc(C(=O)N3Cc4ccccc4C(c4cnn(C)c4)C3)no2)c1` (stereo not shown) [Compound P-167, [5-(3-methoxyphenyl)isoxazol-3-yl]-[4-(1-methylpyrazol-4-yl)-3,4-dihydro-1H-isoquinolin-2-yl]methanone] yielded an inhibition of growth at 20 ppm [1] of no less than 80%.

With `Cn1cc(C2CN(C(=O)c3cnc(-c4ccccc4)s3)Cc3ccccc32)cn1` (stereo not shown) [Compound P-164, [4-(1-methylpyrazol-4-yl)-3,4-dihydro-1H-isoquinolin-2-yl]-(2-phenylthiazol-5-yl)methanone] the inhibition of growth at 20 ppm (Monographella nivalis) was no less than 80% and the inhibition of growth at 20 ppm [1] was no less than 80%.

With `Cn1cc(C2CN(C(=O)c3cc(C4CC4)on3)Cc3ccccc32)cn1` (stereo not shown) [Compound P-202, (5-cyclopropylisoxazol-3-yl)-[4-(1-methylpyrazol-4-yl)-3,4-dihydro-1H-isoquinolin-2-yl]methanone] the inhibition of growth at 20 ppm [1] was no less than 80%.

For `Cn1cc(C2CN(C(=O)c3cc(-c4ccc(F)cc4F)on3)Cc3ccc(C(F)(F)F)cc32)cn1` (stereo not shown) [Compound P-112, [5-(2,4-difluorophenyl)isoxazol-3-yl]-[4-(1-methylpyrazol-4-yl)-6-(trifluoromethyl)-3,4-dihydro-1H-isoquinolin-2-yl]methanone], the inhibition of growth at 20 ppm [1] was no less than 80%.

With `COc1ccc2c(c1)[C@@H](c1cnn(C)c1)CN(C(=O)c1cc(-c3ccc(F)cc3F)on1)[C@@H]2C` (racemic) [Compound P-217, [5-(2,4-difluorophenyl)isoxazol-3-yl]-[rac-(1R,4S)-6-methoxy-1-methyl-4-(1-methylpyrazol-4-yl)-3,4-dihydro-1H-isoquinolin-2-yl]methanone] the inhibition of growth at 20 ppm [1] was no less than 80%.

`CCCc1cc(C(=O)N2Cc3ccccc3C(c3cnn(C)c3)C2)no1` (stereo not shown) [Compound P-84, [4-(1-methylpyrazol-4-yl)-3,4-dihydro-1H-isoquinolin-2-yl]-(5-propylisoxazol-3-yl)methanone] was tested, and the inhibition of growth at 20 ppm [1] was no less than 80%.

Work on `Cn1cc(C2CN(C(=O)c3ncc(-c4ccccc4)s3)Cc3ccccc32)cn1` (stereo not shown) [Compound P-156, [4-(1-methylpyrazol-4-yl)-3,4-dihydro-1H-isoquinolin-2-yl]-(5-phenylthiazol-2-yl)methanone] yielded an inhibition of growth at 20 ppm (Monographella nivalis) of no less than 80% and an inhibition of growth at 20 ppm [1] of no less than 80%.

With `Cn1cc(C2CN(C(=O)c3cc(-c4ccccc4Cl)on3)Cc3ccccc32)cn1` (stereo not shown) [Compound P-197, [5-(2-chlorophenyl)isoxazol-3-yl]-[4-(1-methylpyrazol-4-yl)-3,4-dihydro-1H-isoquinolin-2-yl]methanone] the inhibition of growth at 20 ppm (Monographella nivalis) was no less than 80% and the inhibition of growth at 20 ppm [1] was no less than 80%.

`COC(=O)c1ccc2c(c1)C(c1cnn(C)c1)CN(C(=O)c1cc(-c3ccc(F)cc3F)on1)C2` (stereo not shown) [Compound P-61, methyl 2-[5-(2,4-difluorophenyl)isoxazole-3-carbonyl]-4-(1-methylpyrazol-4-yl)-3,4-dihydro-1H-isoquinoline-6-carboxylate] showed an inhibition of growth at 20 ppm [1] of no less than 80%.

For `COC(=O)C1c2ccccc2C(c2cnn(C)c2)CN1C(=O)c1cc(-c2ccccc2)on1` (stereo not shown) [Compound P-41, methyl 4-(1-methylpyrazol-4-yl)-2-(5-phenylisoxazole-3-carbonyl)-3,4-dihydro-1H-isoquinoline-1-carboxylate], the inhibition of growth at 20 ppm [1] was no less than 80%.

`Cn1cc(C2CN(C(=O)c3cc(-c4ccc(S(C)(=O)=O)cc4F)on3)Cc3ccccc32)cn1` (stereo not shown) [Compound P-20, [5-(2-fluoro-4-methylsulfonyl-phenyl)isoxazol-3-yl]-[4-(1-methylpyrazol-4-yl)-3,4-dihydro-1H-isoquinolin-2-yl]methanone] gave an inhibition of growth at 20 ppm [1] of no less than 80%.

For `CCCC1c2ccccc2C(c2cnn(C)c2)CN1C(=O)c1cc(-c2ccc(F)cc2F)on1` (stereo not shown) [Compound P-59, [5-(2,4-difluorophenyl)isoxazol-3-yl]-[4-(1-methylpyrazol-4-yl)-1-propyl-3,4-dihydro-1H-isoquinolin-2-yl]methanone], the inhibition of growth at 20 ppm [1] was no less than 80%.

For `Cc1c(C2CN(C(=O)c3nnc(C4CC4)s3)Cc3ccccc32)cnn1C` (stereo not shown) [Compound P-233, (5-cyclopropyl-1,3,4-thiadiazol-2-yl)-[4-(1,5-dimethylpyrazol-4-yl)-3,4-dihydro-1H-isoquinolin-2-yl]methanone], the inhibition of growth at 20 ppm [1] was no less than 80%.

For `C#CCn1cc(C2CN(C(=O)c3cc(-c4ccccc4)on3)Cc3ccccc32)cn1` (stereo not shown) [Compound P-128, (5-phenylisoxazol-3-yl)-[4-(1-prop-2-ynylpyrazol-4-yl)-3,4-dihydro-1H-isoquinolin-2-yl]methanone], the inhibition of growth at 20 ppm [1] was no less than 80%.

— patent US20250325534A1, “MICROBIOCIDAL TETRAHYDROISOQUINOLINE DERIVATIVES” (SYNGENTA CROP PROTECTION AG, priority 2021, published 2025)
